In patent US20260327655A1, “SMALL-MOLECULE REGULATED ALTERNATIVE SPLICING” (priority 2023, published 2026):
Read-outs that look alike come from different tables or passages of the source.

Experiments:
Format in all cases: cell-based
[1] = test system: RS1-10 minigene (Firefly Luciferase), HEK-293T cells; experiment: Luciferase induction assay, RS1-10 with splice modulator compounds in HEK-293T cells; settings: Homo sapiens
Protocol: (§1) HEK-293T cells were cultured in DMEM+10% FBS, collected after trypsinization, and then dispensed into 96-well plates (cell culture-treated). Each well of the plate was seeded with 1.0×10^5 cells in 100 μL culture medium. After a 1-hour incubation in a tissue culture incubator (5% CO2, 37 degrees C.), plasmid DNA was complexed with a transfection reagent, such as Lipofectamine 3000, and added to respective wells on the plate. Each well received an equivalent of 100 ng of plasmid DNA complexed with 0.15 μL Lipofectamine. Triplicate wells were used for each condition tested in the experiment. The plasmid utilized in the experiment encoded a CMV promoter upstream of the RS I-10 variant that controlled the expression of a Firefly Luciferase gene followed by a SV40 polyadenylation signal. After a 10-minute incubation at room temperature, either DMSO vehicle or specified compound at specified dose was added to the wells of the plate. Plates were then incubated for 18 hours in a tissue culture incubator. Endpoint analysis was performed by adding 100 uL Steady-Luc Firefly Luciferase substrate to each well of the assay plate. After mixing, the liquid contents of each was transferred to a 96-well plate, mixed again for 2 min on an orbital shaker, and incubated at room temperature for 5 min. Finally, the luminescent signal from each well was measured with a with PerkinElmer Envision plate reader. The results of this assay show RS1-10 responded to the majority of the splice modulator compounds used in a dose responsive manner (FIG. 9C). Bars represent mean+/−standard deviation of 3 wells normalized to vehicle controls.

[2] = test system: RS2-3 minigene (Firefly Luciferase), HEK-293T cells; experiment: Luciferase induction assay, RS2-3 with splice modulator compounds in HEK-293T cells; settings: Homo sapiens
Protocol: as §1, with “RS2-3” for “RS I-10”, “RS2-3” for “RS1-10”, “used” for “used in a dose responsive manner”, “13C)” for “9C).”

[3] = test system: RS3-13 minigene (Firefly Luciferase), HEK-293T cells; experiment: Luciferase induction assay, RS3-13 with splice modulator compounds in HEK-293T cells; settings: Homo sapiens
Protocol: as §1, with “RS3-13” for “the RS I-10 variant”, “RS3-13” for “RS1-10”, “used” for “used in a dose responsive manner”, “14D)” for “9C).”

RS1-10 = experiment: Dose-response profiling assay, RS1-10 Flp-In-293 cell line; settings: 18 hours, FIGS. 9D-9F
Protocol: Single-copy insertion of an switch construct and subsequent cell-line generation was performed in Flp-In-293 cells according to manufacturer's protocols. The RS1-10 sequence fused to a Firefly Luciferase gene was cloned into a Flp-In compatible pcDNA5/FRT expression vector with a CMV promoter and BGH polyadenylation signal. Resulting Flp-In cell line carried a single-copy expression cassette (RSwitch-controlled) integrated into the genome. The RS1-10 Flp-In cell line was cultured in DMEM+10% FBS, collected after trypsinization, and then dispensed into 96-well plates (cell culture-treated). Each well of the plate was seeded with 1.0×10^5 cells in 100 μL culture medium. Subsequently, either DMSO vehicle or a splice modulator compound at specified doses was added to the wells of the plate. Triplicate wells were used for each condition tested in the experiment. Plates were then incubated for 18 hours in a tissue culture incubator (5% CO2, 37° C.). Endpoint analysis was performed by adding 100 uL of a Luciferase substrate, such as Steady-Luc Firefly Luciferase substrate, to each well of the assay plate. The liquid contents of each was transferred to a 96-well plate, mixed again for 2 min on an orbital shaker, and incubated at room temperature for 5 min. Finally, the luminescent signal from each well was measured with a plate reader. Each plotted data point on a graph in a figure represents a mean of 3 wells+/−standard deviation normalized to vehicle controls. A nonlinear regression curve fit of the plotted data points was generated in graphing software.

[4] = RS1-10, 100 nM, 18 hours, n of 3, read-out: Mean fold-induction of luciferase (relative to vehicle control)
[5] = RS1-10, 1,000 nM, 18 hours, n of 3, read-out: Mean fold-induction of luciferase (relative to vehicle control)
[6] = RS2-3, 100 nM, 18 hours, n of 3, read-out: Mean fold-induction of luciferase (relative to vehicle control)
[7] = RS2-3, 1,000 nM, 18 hours, n of 3, read-out: Mean fold-induction of luciferase (relative to vehicle control)
[8] = RS3-13, 100 nM, 18 hours, n of 3, read-out: Mean fold-induction of luciferase (relative to vehicle control)
[9] = RS3-13, 1,000 nM, 18 hours, n of 3, read-out: Mean fold-induction of luciferase (relative to vehicle control)
[10] = 18 h, read-out: Mean fold-induction of luciferase (relative to vehicle control)

Structure (SMILES)	fold induction at 0.1 µM [1, 4]	fold induction at 1 µM [1, 5]	fold induction at 0.1 µM [2, 6]	fold induction at 1 µM [2, 7]	fold induction at 0.1 µM [3, 8]	fold induction at 1 µM [3, 9]	fold-induction of luciferase signal, dose response (RS1-10)	fold induction at 0.1 µM [1, 10]	fold induction at 1 µM [1, 10]	fold induction at 0.1 µM [2, 10]	fold induction at 1 µM [2, 10]	fold induction at 0.1 µM [3, 10]	fold induction at 1 µM [3, 10]
CCN1CC(c2ccc(-c3ccc(-c4cn5cc(C)nc5c(C)n4)cc3O)nn2)C1 [Compound 32A]	53.5	83.1	5.9	23.3	3.24	23							
Cc1cn2cc(-c3nc(=O)n4cc(N5CCN[C@@H](C)C5)cc(C)c4n3)cc(F)c2n1 [Compound 117B]	52.1	73.5	15.2	39.9	22.8	55.6							
Cc1cn2cc(-c3ccc(-c4ccc(C5CN(C6CCOC(C)(C)C6)C5)nn4)c(O)c3)cc(F)c2n1 (centres unmarked) [Compound 86A]	56.1	85.1	7.86	27.7	7.54	31.3							
Cc1cn2cc(-c3nc(=O)n4cc(N5CCNCC5)ccc4n3)cc(C)c2n1 [Compound 126B]	2.06	41.5	5.18	17.8	3.46	25.2							
Cn1cc2cc(-c3ccc(-c4ccc(C5CN(C6CCOCC6)C5)nn4)c(O)c3)ccc2n1 [22 A, 5-(2-methyl-2H-indazol-5-yl)-2-{6-[1-(oxan-4-yl)azetidin-3-yl]pyridazin-3-yl}phenol]							increase in fold-induction of luciferase signal with increasing concentrations						
Cc1cn2cc(-c3ccc(-c4ccc(C5CN(C(C)C)C5)nn4)c(O)c3)cc(F)c2n1 [Compound 15A]	79	82	17	39.4	20.6	54.5							
Cc1cn2cc(-c3nc(=O)n4cc(N5CCNCC5)cc(C)c4n3)cc(F)c2n1 [Compound 108B]	1.16	1.43	1.65	1.76	1.41	1.66							
Cc1cn2nc(-c3ccc(-c4ccc(C5CNC5)nn4)c(O)c3)cc(C)c2n1 [Compound 3A]	31.7	94.7	2.86	17.6	1.81	10.2							
Cc1cc2cc(-c3nc(=O)n4cc(N5CCNC(C)(C)C5)cc(F)c4n3)cc(C)n2n1 [Compound 135B]	16.1	48.8	7.61	14.7	5.99	16.1							
Cc1cc2cc(-c3ccc(-c4ccc(C5CN(C6CCOCC6)C5)nn4)c(O)c3)ccn2n1 [Compound 192A]	51.3	70.8	4.97	22.7	2.18	13.4							
Cc1cn2cc(-c3ccc(-c4ccc(C5CN(Cc6cocn6)C5)nn4)c(O)c3)cc(F)c2n1 [Compound 101A]	57.5	86.8	8.48	31.5	6	34.2							
Cc1cn2cc(-c3cc(O)c(-c4ccc(C5CNC5)nn4)cc3F)cc(F)c2n1 [Compound 8A]	41.5	79.2	4.1	16	2.11	9.79							
CCN1CC(c2ccc(-c3ccc(-c4cc(C)c5nn(C)cc5c4)cc3O)nn2)C1 [34 A, 5-(2,7-dimethyl-2H-indazol-5-yl)-2-[6-(1-ethylazetidin-3-yl)pyridazin-3-yl]phenol]							increase in fold-induction of luciferase signal with increasing concentrations						
Cc1cc(-c2ccc(-c3ccc(C4CNC4)nn3)c(O)c2)cc2cn(C)nc12 [Compound 6A]	29.4	69.6	2.54	13.9	1.69	7.94							
Cc1cn2cc(-c3nc(=O)n4cc(C5=CCNCC5)ccc4n3)cc(F)c2n1 [Compound 111B]								3.06	48.4	1.6	2.97	1.32	1.63
Cc1cn2cc(-c3ccc(-c4ccc(C5CNC5)nn4)c(O)c3F)cc(F)c2n1 [Compound 10A]	65.9	96	11.1	29.2	10.1	43.6							
Cc1cn2cc(-c3nc(=O)n4cc(N5CCN[C@@H](C)C5)cc(F)c4n3)cc(C)c2n1 [Compound 121B]	24.6	73.5	9.41	28.8	9.95	46							
